Measurements: ChEMBL document CHEMBL1133635, “Caspases as targets for anti-inflammatory and anti-apoptotic drug discovery” (J Med Chem, 2000)
Where a SMILES comes first, the peptide text is derived from it. [ ]: non-standard residue; d: D form. ξ: configuration not given here. ξE = NC(CCC(=O)O)C(=O)O; βAla = NCCC(=O)O

How the values were obtained:
Caspase-1 [1] = molecular target: T1, Caspase-1 (Homo sapiens, UniProt P29466); assay: Compound was evaluated for the inhibitory activity against caspase-1
T1 sequence (P29466 whole entry): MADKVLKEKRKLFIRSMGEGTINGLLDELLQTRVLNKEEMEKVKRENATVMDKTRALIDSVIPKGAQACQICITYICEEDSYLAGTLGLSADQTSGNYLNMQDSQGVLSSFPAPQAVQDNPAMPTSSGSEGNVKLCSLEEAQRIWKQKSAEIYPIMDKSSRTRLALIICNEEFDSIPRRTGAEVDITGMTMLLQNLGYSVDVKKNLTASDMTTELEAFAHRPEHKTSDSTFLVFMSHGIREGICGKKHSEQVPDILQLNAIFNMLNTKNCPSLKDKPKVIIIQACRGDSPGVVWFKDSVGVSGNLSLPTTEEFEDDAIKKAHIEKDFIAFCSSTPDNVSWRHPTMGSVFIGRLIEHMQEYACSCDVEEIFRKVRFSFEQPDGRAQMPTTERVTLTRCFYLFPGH

Caspase-1 [2] = molecular target: T1, Caspase-1; assay: Dissociation constant for inhibition of caspase-1
Caspase-7 = molecular target: T2, Caspase-7 (Homo sapiens, UniProt P55210); assay: Evaluated for kinetic dissociation constant […] for the inhibition of caspase-7; details: read-out: Ki app
T2 sequence (P55210 whole entry): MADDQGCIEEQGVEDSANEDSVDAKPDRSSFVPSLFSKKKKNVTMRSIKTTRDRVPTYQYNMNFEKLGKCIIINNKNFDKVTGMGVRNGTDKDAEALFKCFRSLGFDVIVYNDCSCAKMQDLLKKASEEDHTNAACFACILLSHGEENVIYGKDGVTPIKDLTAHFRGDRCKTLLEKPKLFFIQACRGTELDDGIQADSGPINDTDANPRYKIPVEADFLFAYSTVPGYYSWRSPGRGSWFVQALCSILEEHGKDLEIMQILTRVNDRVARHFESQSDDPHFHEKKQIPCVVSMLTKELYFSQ

Caspase-3 = molecular target: T3, Caspase-3 (Homo sapiens, UniProt P42574); assay: Evaluated for the dissociation constant for the inhibition of caspase-3; details: read-out: Ki app
T3 sequence (P42574 whole entry): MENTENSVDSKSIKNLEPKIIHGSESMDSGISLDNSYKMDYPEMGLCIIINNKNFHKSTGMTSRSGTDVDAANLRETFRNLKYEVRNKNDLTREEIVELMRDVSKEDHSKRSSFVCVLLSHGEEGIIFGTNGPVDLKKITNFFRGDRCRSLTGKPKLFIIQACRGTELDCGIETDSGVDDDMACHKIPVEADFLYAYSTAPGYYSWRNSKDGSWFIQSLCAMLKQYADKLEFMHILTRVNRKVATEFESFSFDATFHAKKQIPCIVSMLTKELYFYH

Caspase-1 (Homo sapiens) [3] = molecular target: T4, Caspase-1 (Homo sapiens) (UniProt P29466)
T4 sequence (whole entry): T1 sequence (P29466 whole entry)
Description: Evaluated for kinetic dissociation constant (kon) for the inhibition of caspase-1.

Caspase-1 (Homo sapiens) [4] = molecular target: T4, Caspase-1 (Homo sapiens); remark: listed apart in the source
Description: Evaluated for dissociation constant for the inhibition of caspase-1

SMILES	IC50 (Caspase-1 [1]) [nM]	Ki (Caspase-1 [2]) [nM]	further results
CC(C)[C@H](NC(=O)OCc1ccccc1)C(=O)N[C@@H](C)C(=O)N[C@@H](CC(=O)O)C(=O)c1ncc[nH]1			Ki (Caspase-1 [1]): 8.8 µM
O=C(O)C[C@H](NC(=O)C(c1ccccc1)n1cccc(NC(=O)c2cccc3ccccc23)c1=O)C(=O)COc1ccccc1 (stereo partly drawn)	10		
CC(=O)N[C@@H](Cc1ccc(O)cc1)C(=O)N[C@H](C(=O)N[C@@H](C)C(=O)NC(C=O)CCC(=O)O)C(C)C (stereo partly drawn) (Ac-YVA[ξE]-aldehyde)		9	
CC(C)[C@H](NC(=O)OCc1ccccc1)C(=O)N[C@@H](C)C(=O)N[C@@H](CC(=O)O)C(=O)c1ncc(-c2ccccc2)o1			Ki (Caspase-1 [1]): 0.24 µM
O=C[C@H](CC(=O)O)NS(=O)(=O)c1ccccc1OCCc1cccc2ccccc12		62	
CCCCC(C(=O)N[C@@H](CC(=O)O)C(=O)COc1ccccc1)n1cncc(NC(=O)c2cccc3ccccc23)c1=O (stereo partly drawn)	46		
CC(C)[C@H](NC(=O)c1ccc2ccccc2c1)C(=O)N1CCC[C@H]1C(=O)NC(C=O)CC(=O)NS(C)(=O)=O (stereo partly drawn)		38	
CN1C(=O)C(=O)c2cc(S(=O)(=O)N3CCC[C@H]3COc3ccccc3)ccc21			Ki (Caspase-7): 47 nM; Ki (Caspase-3): 15 nM
CC(=O)N[C@@H](Cc1ccc(O)cc1)C(=O)N[C@H](C(=O)N1CC(O)C[C@H]1C(=O)NC(C=O)CC(=O)O)C(C)C (stereo partly drawn)		2	
CC(C)[C@H](NC(=O)OCc1ccccc1)C(=O)N[C@@H](C)C(=O)N[C@@H](CC(=O)O)C(=O)c1ncco1			Ki (Caspase-1 [1]): 13 µM
O=C[C@H](CC(=O)O)NC(=O)C1CCC2CCC(NC(=O)OCc3ccccc3)C(=O)N21 (stereo partly drawn)		36	
CC(C)[C@H](NC(=O)c1ccccc1)C(=O)N(CC(=O)NC(CC(=O)O)C(=O)c1nc2ccccc2o1)C1Cc2ccccc2C1 (stereo partly drawn)	2		
CC(=O)N[C@@H](Cc1ccc(O)cc1)C(=O)N[C@H](C(=O)N[C@@H](C)C(=O)NCCC(=O)O)C(C)C (Ac-YVA[βAla]-OH)		200000	
CC(=O)N[C@@H](Cc1ccc(O)cc1)C(=O)N[C@H](C(=O)N[C@@H](C)C(=O)NC(CC(=O)O)C(=O)CCCCCc1ccccc1)C(C)C (stereo partly drawn)	18.5		
CC(C)[C@H](CC(=O)NCCc1cn(C)c2ccccc12)C(=O)NC(CC(=O)O)C(=O)CNS(=O)(=O)CC12CCC(CC1=O)C2(C)C (stereo partly drawn)	0.4		
O=C[C@H](CC(=O)O)NC(=O)[C@@H]1Cc2cccc3c2N1C(=O)[C@@H](NC(=O)c1cccc2ccccc12)CC3		10	
CC[C@@H](C(=O)NC(CC(=O)O)C(=O)CNCCc1ccccc1)n1cccc(NC(=O)c2ccc3ccccc3c2)c1=O (stereo partly drawn)	0.37		
CC(=O)N[C@@H](Cc1ccc(O)cc1)C(=O)N[C@H](C(=O)N[C@@H](C)C(=O)NC(C=O)CC(=O)O)C(C)C (stereo partly drawn)		0.76	k on (Caspase-1 (Homo sapiens) [3]): 380000 M⁻¹ s⁻¹
CC(C)[C@H](NC(=O)OCc1ccccc1)C(=O)N[C@@H](C)C(=O)N[C@@H](CC(=O)O)C(=O)c1nccs1			Ki (Caspase-1 [1]): 10 µM
CC(C)[C@H](NC(=O)OCc1ccccc1)C(=O)N[C@@H](C)C(=O)NC(CC(=O)O)C(=O)COc1cc2ccccc2cc1C(N)=O (stereo partly drawn)	1.7		k on (Caspase-1 (Homo sapiens) [4]): 430000 M⁻¹ s⁻¹
CC(C)[C@H](NC(=O)OCc1ccccc1)C(=O)N[C@@H](C)C(=O)NC(CC(=O)O)C(=O)COc1ccc2ccc(=O)oc2c1 (stereo partly drawn)		17	
CC(C)[C@H](NC/C=C/c1ccccc1)C(=O)N1CC(O)C[C@H]1C(=O)NC(CC(=O)O)C(=O)COc1ccccc1 (stereo partly drawn)	13		
CC(C)[C@H](NC(=O)OCc1ccccc1)C(=O)N[C@@H](C)C(=O)N[C@@H](CC(=O)O)C(=O)c1nc(-c2ccccc2)c[nH]1			Ki (Caspase-1 [1]): 6.3 µM
CC(=O)N[C@@H](Cc1ccc(O)cc1)C(=O)N[C@H](C(=O)N[C@@H](C)C(=O)N[C@@H](CC(=O)O)C(=O)C(=O)NCCc1ccccc1)C(C)C		9	
CC(C)[C@H](NC(=O)OCc1ccccc1)C(=O)N[C@@H](C)C(=O)NC(CC(=O)O)C(=O)COC(=O)CCc1ccccc1 (stereo partly drawn)	1.9		
